Laboratory results: paper PMC12858405, “Ideal efficacy photoswitching for chromocontrol of TRPC4/5 channel functions in live tissues” (Nature Chemical Biology, 2026)

Experiments:
[1] = system: Th+ neurons of Th-GCaMP6f (WT) mice; experiment: GCaMP6f Ca2+ imaging of Th+ neurons in arcuate nucleus brain slices with 355 nm photoswitching, Th-GCaMP6f (WT) mice; conditions: for EC50: Mus musculus, Neuron, read-out: EC50 of Z-isomer-induced Ca2+ responses (ΔAUC) in Th+ neurons, WT
Text: slices through the ARC of mice expressing the Ca2+ indicator GCaMP6f in Th+ neurons (Fig. 4),
we investigated (1) whether Ca2+ responses at endogenous TRPC5 expression levels can be
TRPC5 expression using TRPC5-deficient brain slices, (3) whether a dose dependence could be
detected, and (4) whether there are properties in channel activity that can be distinguished between
concentration-response measurements (Fig. 5d).

mouse TRPC4β = molecular target: T1, mouse TRPC4β (Mus musculus, UniProt Q9QUQ5); experiment: FLIPR Ca2+ influx assay (Fluo-4) with 365/447 nm photoswitching, HEK293 stably expressing mouse TRPC4β; type: cell-based; conditions: for EC50: Z* = mostly-Z PSS under 365 nm LED, Fluo-4-loaded cells, read-out: Agonistic EC50 (365 nm) TRPC4
T1 construct: expressed in transfected cells; host or cells: HEK293 (ATCC CRL 1573), stably transfected, tetracycline-induced
T1 sequence (Q9QUQ5 1-890 isoform Q9QUQ5-2): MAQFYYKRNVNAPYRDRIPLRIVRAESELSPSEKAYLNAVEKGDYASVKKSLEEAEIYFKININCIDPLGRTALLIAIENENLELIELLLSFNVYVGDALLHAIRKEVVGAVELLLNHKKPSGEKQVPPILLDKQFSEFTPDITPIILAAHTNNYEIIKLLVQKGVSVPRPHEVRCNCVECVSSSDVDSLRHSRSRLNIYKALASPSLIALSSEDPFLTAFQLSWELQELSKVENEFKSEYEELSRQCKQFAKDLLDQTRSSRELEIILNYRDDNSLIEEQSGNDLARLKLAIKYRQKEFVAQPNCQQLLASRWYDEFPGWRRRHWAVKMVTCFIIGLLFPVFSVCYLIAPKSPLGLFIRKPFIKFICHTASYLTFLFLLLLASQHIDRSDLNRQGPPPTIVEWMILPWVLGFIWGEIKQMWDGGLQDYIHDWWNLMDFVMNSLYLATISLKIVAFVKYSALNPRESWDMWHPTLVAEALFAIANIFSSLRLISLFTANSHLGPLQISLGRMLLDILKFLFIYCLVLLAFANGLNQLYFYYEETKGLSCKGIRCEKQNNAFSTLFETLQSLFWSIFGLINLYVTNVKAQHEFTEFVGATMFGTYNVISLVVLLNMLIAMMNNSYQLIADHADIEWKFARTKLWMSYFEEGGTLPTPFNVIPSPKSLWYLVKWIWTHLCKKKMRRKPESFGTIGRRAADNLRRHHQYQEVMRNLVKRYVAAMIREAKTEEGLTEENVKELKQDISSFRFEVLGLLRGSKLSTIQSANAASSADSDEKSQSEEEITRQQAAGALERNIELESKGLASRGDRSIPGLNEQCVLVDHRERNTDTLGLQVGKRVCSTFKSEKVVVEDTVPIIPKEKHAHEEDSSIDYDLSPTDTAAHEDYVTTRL
Text: We initially screened for the photoswitchability of activity in cells using a fluorometric imaging plate reader (FLIPR) calcium flux assay, with HEK293 cells stably expressing mouse TRPC4β or mouse TRPC5. Note, however, that the parallel-throughput FLIPR setup is limited to use fixed light-emitting diodes at 365 nm (good Z) and 447 nm (suboptimal E), which, combined with the slowness of the onset and recovery of the fluorescence readout for calcium, causes the FLIPR results to underestimate the reagents’ true speed, degree and completion of TRPC chromocontrol (shown later). […]
3 Cultured Cell Lines (primarily for Fig. 1 and Fig. 2)
3.1 FLIPR Ca2+ influx assay in cell suspensions.
We initially screened for photoswitchability of activity in cells, using a fluorometric imaging plate reader (FLIPR) calcium flux assay, with human embryonic kidney cell line HEK293 stably transfected to express mouse TRPC4β- or TRPC5-CFP fusion protein (HEKmTRPC4β-CFP / HEKmTRPC5-CFP, HEK293 obtained from ATCC CRL 1573). The FLIPR setup provides high-content data, but it is limited to using LED wavelengths of 365 nm (best-Z) and 447 nm (suboptimal-E), while imaging at 470 nm excitation (Fluo-4 AM as Ca2+ indicator; this imaging light counteracts both PSSs). Therefore, we expected the FLIPR results to under-estimate the true chromocontrol power accessible to the reagents.
Cells were grown to 70%-90% confluency in a 75-cm2 culture flask, trypsinised, washed and resuspended in BSA-containing (0.1%) HBS, and supplemented with 3 µM Fluo-4/AM. Stably TRPC-transfected cells were induced with tetracycline 24 h prior to the experiments.42,43 After incubation at 37°C for 30 min [Fluo-4 loading], cells were again washed, resuspended, and dispensed (40 µl/well) into black pigmented, clear-bottom 384-well plates (Greiner µ-clear). To image the Fluo-4 fluorescence during the application and photoswitching of test compounds, these plates were first mounted to a Tecan Fluent 480 (Tecan, Männedorf, Switzerland) liquid handling device, equipped with a 384-tip multichannel arm and a gripper arm. A custom-made plate-imaging device was used for photoswitching during fluorescence imaging, which features LED-based excitation modules (365 nm and 447 nm used here for photoswitching, and 470 nm used here for Fluo-4 readout) projected onto the bottom of the microwell plate, with a cooled scientific complementary metal oxide sensor (sCMOS) camera (Zyla 5.5, Andor, Belfast, UK) equipped with a Nokton 42.5 mm f/0.95 (Voigtlaender, Fürth, Germany) for detection. The LEDs were controlled with an Arduino device and constant current drivers (1 A for 365 and 470 nm LEDs; 3 A for 447 nm LED); detection was under the control of Micromanager 2.0 software. Compounds were serially diluted and applied to the Fluo-4-loaded cell suspensions inside this custom plate-imaging device, then fluorescence intensities (under 470 nm excitation) were continuously recorded during programmed illuminations e.g. with alternating 365 nm and 447 nm phases.
Concentration-response curves for the Z-isomers (channel activation) were then constructed from the maximal signals during 365 nm phases, after a suitable number of "priming" cycles to allow the system to reach stable performance (Supplementary Fig. 13).
All experiments were conducted as a minimum of 3 independent experiments with each experiment averaging data in technical duplicates.
Cellular TRPC4 photoswitching: HEK cell Ca2+ influx photomodulation […]
Supplementary Figure 12. […]

Effect of E isomer alone on TRPC4 (mouse TRPC4β; 12 pM to […], before 365-nm illumination) | SMILES | EC50 [1] [nM] | EC50 (mouse TRPC4β) [nM] | Activity of Z isomer on TRPC4 (mouse TRPC4β; into the micromolar range, 365 nm) | Cells with sustained high Ca2+ signal lasting up to 3 min (count) ([1]; 500 nM, 355 nm pulse) | Cells with sustained high Ca2+ signal lasting up to 3 min ([1]; 500 nM, 355 nm pulse) [%]
 | Cn1c(=O)n(CCCO)c(=O)c2c1nc(Oc1ccc(/N=N\c3ccccc3)c(Cl)c1)n2Cc1ccc(Cl)cc1 [Z*-AzHC] | 130 ± 100 | > 1000 | completely inactive |  | 
no effect | Cn1c(=O)n(CCCO)c(=O)c2c1nc(Oc1ccc(/N=N/c3ccccc3)c(OC(F)(F)F)c1)n2Cc1ccc(Cl)cc1 [E-AzPico] |  |  |  |  | 
 | Cn1c(=O)n(CCCO)c(=O)c2c1nc(Oc1ccc(N=Nc3ccccc3)c(OC(F)(F)F)c1)n2Cc1ccc(Cl)cc1 [AzPico] |  | 3 |  | 13 out of 31 | 
 | Cn1c(=O)n(CCCO)c(=O)c2c1nc(Oc1ccc(N=Nc3ccccc3)c(Cl)c1)n2Cc1ccc(Cl)cc1 [AzHC] | 130 ± 100 |  |  | 14 of 33 | 42
